PMC3968128, “Broadly Reactive Human CD8 T Cells that Recognize an Epitope Conserved between VZV, HSV and EBV” (PLoS Pathogens, 2014)
Ends that are not written are not given here.

Tests used:
[1] = biological target: T1, HLA A*02:01 class I molecules (Homo sapiens, UniProt P04439, D140Y/D185E/D98H/E176V/E277Q/G131W/G231S/I119V/I121R/I166T/I218V/L300P/L318F/N151K/N90K/P208A/P217A/Q86G/Q94H/R138H/R169H/T345S); test: MHC-peptide binding assay, inhibition of binding of radiolabeled standard peptide; details: inhibition of binding of radiolabeled HBV core 18–27 analogue […]; purified MHC from JY cells; six concentrations, three or more independent assays; read-out: Measured affinity IC50
T1 construct: endogenous in cells; host or cells: JY (EBV-transformed homozygous B cell line)
Excerpt: Quantitative assays to measure the binding of peptides to HLA A*02:01 class I molecules are based on the inhibition of binding of a radiolabeled standard peptide (HBV core 18–27 analogue, […]). MHC molecules were purified by affinity chromatography from the EBV transformed homozygous cell line JY, and assays performed, as described previously. […] Under the conditions used, where [radiolabeled probe] < [MHC] and IC50 ≥ [MHC], the measured IC50 values are reasonable approximations of the true Kd values.

[2] = system: PBMCs from HLA-A*0201+ volunteers; test: Ex vivo IFN-γ ELISpot assay; format: cell-based, human; details: individual peptides at 10 µg/ml; 20 h, 37°C
Excerpt: We recruited 21 HLA-A*0201 positive volunteers with a history of primary VZV infection, detectable VZV IgG but no previous VZV vaccination or clinical evidence of recent reactivation (Table 1). The median age was 63 years (range 25–77 years). Epitope predictions in the context of HLA-A*0201 were made using the Immune Epitope Database consensus prediction tool with the complete published VZV sequences (Table S1). The top 0.5% of 9- and 10-mers (367 peptides) were synthesized and peptide pools screened by IFN-γ ELISpot using PBMCs from each subject. In 15/21 subjects, the same peptide pool induced positive responses (Figure 1a). […] Tetramer+ cells were detected in 12/21 subjects with frequencies ranging from 0.01% to 1.8% of CD8 T cells (Figure 1d). ILI was thus identified as an immunodominant HLA-A*0201-restricted class I epitope.
Gamma interferon (IFN-γ) enzyme-linked immunospot (ELISpot) assays were performed using 2×10^5 PBMC stimulated with peptide pools (10 µg/ml/peptide). Peptide pools yielding positive responses were deconvoluted, by testing individual peptides at 10 µg/ml. After 20 h of incubation at 37°C, plates were developed, and responses were calculated. Positive wells contained ≥20 spot-forming units (SFU)/10^6 cells and a P value of ≤0.05 using a Student's t test in at least 2 experiments.

Sequence	IC50 [1] [nM]	IFN-γ production (individual peptides) [2]
ILIEGIFFA	0.15	
ILIEGIFFV	0.03	
MILIEGIFFV [10-mer candidate peptide from ribonucleotide reductase subunit 2 (RNR2) of VZV]		strongly induced IFN-γ production
ILIEGVFFA	0.16	
LLIEGIFFI	0.12	
